Drawing on patent EP3436445B1, “HISTONE DEMETHYLASE INHIBITORS” (Celgene Quanticel Research, Inc., priority 2016, dated 2017), this text covers IC50 for 12 compounds.

One test has as its target T1, Jarid1B (Homo sapiens, UniProt Q9UGL1).
T1 construct: purchased BPS Bioscience (or custom made by MolecularThroughput) 50121
T1 sequence (Q9UGL1 2-751): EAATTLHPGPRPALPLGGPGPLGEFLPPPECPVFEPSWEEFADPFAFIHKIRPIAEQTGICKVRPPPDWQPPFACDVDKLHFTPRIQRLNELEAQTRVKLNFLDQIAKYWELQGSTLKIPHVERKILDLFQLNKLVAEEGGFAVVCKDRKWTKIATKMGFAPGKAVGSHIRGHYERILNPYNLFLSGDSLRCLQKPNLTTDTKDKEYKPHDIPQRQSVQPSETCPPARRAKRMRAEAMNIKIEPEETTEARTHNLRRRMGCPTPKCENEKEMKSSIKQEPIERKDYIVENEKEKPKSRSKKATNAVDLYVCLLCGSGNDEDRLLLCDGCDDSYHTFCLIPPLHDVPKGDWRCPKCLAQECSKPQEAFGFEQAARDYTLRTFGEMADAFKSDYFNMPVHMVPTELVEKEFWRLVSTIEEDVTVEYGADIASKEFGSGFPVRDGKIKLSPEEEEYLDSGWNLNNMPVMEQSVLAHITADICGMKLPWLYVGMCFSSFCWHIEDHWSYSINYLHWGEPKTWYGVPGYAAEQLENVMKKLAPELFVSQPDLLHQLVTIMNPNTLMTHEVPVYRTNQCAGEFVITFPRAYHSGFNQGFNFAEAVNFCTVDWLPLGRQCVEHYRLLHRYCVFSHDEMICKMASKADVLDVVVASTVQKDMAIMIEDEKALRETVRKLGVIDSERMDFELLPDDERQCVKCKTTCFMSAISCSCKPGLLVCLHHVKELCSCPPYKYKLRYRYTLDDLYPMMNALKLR
Put plainly: Jarid1B in vitro enzyme inhibition assay (TR-FRET). In kind it is biochemical. The conditions noted are these: Table 5; 0.8 nM Jarid1B, H3K4me3-biotin labeled peptide; read-out: JARID1B IC5. The text has this:
(§1) This assay determines the ability of a test compound to inhibit Jarid1B, JMJD2C and JMJD3 demethylase activity. Baculovirus expressed Jarid1B (GenBank Accession #NM-006618, AA 2-751) was purchased from BPS Bioscience (Cat #50121) or custom made by MolecularThroughput. Baculovirus expressed JMJD2C (GenBank Accession #BC143571, AA 2-372) was purchased from BPS Bioscience (Cat#50105). Baculovirus expressed JMJD3 (GenBank Accession #NM-001080424, AA1043-end) was purchased from BPS Bioscience (Cat#50115).
The ability of test compounds to inhibit the activity of Jarid1B was determined in 384-well plate format under the following reaction conditions: 0.8 nM Jarid1B, 300 nM H3K4me3-biotin labeled peptide (Anaspec cat #64357), 2 µM alpha-ketoglutaric acid in assay buffer of 50 mM HEPES, pH7.3, 0.005% Brij35, 0.5 mM TCEP, 0.2 mg/ml BSA, 50 µM sodium L-ascorbate, and 2 µM ammonium iron(II) sulfate. Reaction product was determined quantitatively by TR-FRET after the addition of detection reagent Phycolink Streptavidin-allophycocyanin (Prozyme) and Europium-anti-mono-or di-methylated histone H3 lysine 4 (H3K4me1-2) antibody (PerkinElmer) in the presence of 5 mM EDTA in LANCE detection buffer (PerkinElmer) at a final concentration of 25 nM and 1 nM, respectively.
The assay reaction was initiated by the following: 2 µl of the mixture of 900 nM H3K4me3-biotin labeled peptide and 6 µM alpha-ketoglutaric acid with 2 µl of 11-point serial diluted inhibitor in 3% DMSO was added to each well of the plate, followed by the addition of 2 µl of 2.4 nM Jarid1B to initiate the reaction. The reaction mixture was incubated at room temperature for 30 minutes, and terminated by the addition of 6 µl of 5 mM EDTA in LANCE detection buffer containing 50 nM Phycolink Streptavidin-allophycocyanin and 2 nM Europium-anti-H3K4me1-2 antibody. Plates were read by EnVisionMultilabel Reader in TR-FRET mode (excitation at 320 nm, emission at 615 nm and 665 nm) after 1 hour incubation at room temperature. A ratio was calculated (665/615) for each well and fitted to determine inhibition constant (IC50).

The target in the next test is T2, JMJD3 (Homo sapiens, UniProt O15054).
T2 construct: purchased BPS Bioscience 50115
T2 sequence (O15054 1043-1682 isoform O15054-1): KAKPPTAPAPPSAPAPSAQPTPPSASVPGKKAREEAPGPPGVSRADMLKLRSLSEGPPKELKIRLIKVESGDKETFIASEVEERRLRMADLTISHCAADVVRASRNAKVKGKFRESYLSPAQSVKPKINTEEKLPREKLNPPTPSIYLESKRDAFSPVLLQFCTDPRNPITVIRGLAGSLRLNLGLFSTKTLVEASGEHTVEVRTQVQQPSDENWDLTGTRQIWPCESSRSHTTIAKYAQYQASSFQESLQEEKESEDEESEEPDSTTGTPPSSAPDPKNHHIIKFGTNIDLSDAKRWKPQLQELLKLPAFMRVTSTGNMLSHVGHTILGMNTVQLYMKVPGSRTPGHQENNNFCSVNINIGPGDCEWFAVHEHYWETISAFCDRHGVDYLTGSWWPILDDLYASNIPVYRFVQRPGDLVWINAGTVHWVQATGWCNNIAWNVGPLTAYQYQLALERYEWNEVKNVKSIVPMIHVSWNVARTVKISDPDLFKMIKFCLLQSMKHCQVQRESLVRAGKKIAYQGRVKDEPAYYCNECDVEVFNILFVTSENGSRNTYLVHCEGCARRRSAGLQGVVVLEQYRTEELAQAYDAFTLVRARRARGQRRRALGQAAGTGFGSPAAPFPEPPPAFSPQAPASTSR
Put plainly: JMJD3 in vitro enzyme inhibition assay (AlphaScreen). It counts as biochemical. The conditions noted are these: Table 5; 1 nM JMJD3, H3K27me3-biotin labeled peptide.
Description: as §1
The ability of test compounds to inhibit the activity of JMJD3 was determined in 384-well plate format under the following reaction conditions: 1 nM JMJD3, 250 nM H3K27me3-biotin labeled peptide (Anaspec cat # 64367), 1 µM alpha-ketoglutaric acid in assay buffer of 50 mM HEPES, pH7.3, 0.005% Brij35, 0.5 mM TCEP, 0.2 mg/ml BSA, 50 µM sodium L-ascorbate, 5 µM ammonium iron(II) sulfate. Reaction product is determined quantitatively by AlphaScreen detection after the addition of detection reagents anti-H3K27me1 antibody, 5 µg/ml AlphaScreen® Streptavidin-coated Donor beads, and 5 µg/ml AlphaScreen® Protein A Acceptor beads in 50 mM HEPES, pH7.3, 10 mM NaCl, 0.005% Brij35, 10 mM EDTA, 2 mg/ml BSA.
The assay reaction was initiated by the following: 3 µl of the mixture of 750 nM H3K27me3-biotin labeled peptide and 3 µM alpha-ketoglutaric acid with 3 µl of 11-point serial diluted inhibitor in 3% DMSO are added to each well of 384 well Proxiplate (Perkin Elmer), followed by the addition of 3 µl of 3 nM JMJD3 to initiate the reaction. The reaction mixture is incubated at room temperature for 20 minutes, and terminated by the addition of 3 µl of appropriate dilution of anti H3K27me1 antibody in 50 mM HEPES, pH7.3, 10 mM NaCl, 0.005% Brij35, 10 mM EDTA, 2 mg/ml BSA. Plates will then incubated at room temperature for 1 hour, followed by addition of 3 µl of 25 µg/ml AlphaScreen® Streptavidin-coated Donor beads and AlphaScreen® Protein A Acceptor beads in 50 mM HEPES, pH7.3, 10 mM NaCl, 0.005% Brij35, 10 mM EDTA, 2 mg/ml BSA. Plates will then be read by EnVision Multilabel Reader in AlphaScreen mode after minimum 2 hour incubation at room temperature. The AlphaScreen signal for each well is used to determine inhibition constant (IC50).

Structures are written as SMILES.

On to `Cc1ccc(Cn2cnc(-c3cc(-c4nn[nH]c4C(F)(F)F)ccn3)c2)c(F)c1` [Example 71, 2-{1-[(2-fluoro-4-methylphenyl)methyl]-1H-imidazol-4-yl}-4-[5-(trifluoromethyl)-1H-1,2,3-triazol-4-yl]pyridine], for which the IC50 on Jarid1B is 100 to 1000 nM; against JMJD3, greater than 10000 nM.
As for `FC(F)(F)c1[nH]nnc1-c1ccnc(-c2cn(Cc3ccccc3)cn2)c1` [Example 72, 2-(1-benzyl-1H-imidazol-4-yl)-4-[5-(trifluoromethyl)-1H-1,2,3-triazol-4-yl]pyridine], the IC50 on Jarid1B is 100 to 1000 nM; on JMJD3, greater than 10000 nM.
For the compound `CC(c1ccccc1)n1cnc(-c2cc(-c3nn[nH]c3C(F)(F)F)ccn2)c1` (stereo not drawn) [Example 73, 2-[1-(1-phenylethyl)-1H-imidazol-4-yl]-4-[5-(trifluoromethyl)-1H-1,2,3-triazol-4-yl]pyridine], the IC50 at Jarid1B is 100 to 1000 nM; on JMJD3 it was greater than 10000 nM.
Take `CCC(c1ccccc1)n1cnc(-c2cc(-c3nn[nH]c3C(F)(F)F)ccn2)c1` (stereo not drawn) [Example 74, 2-[1-(1-phenylpropyl)-1H-imidazol-4-yl]-4-[5-(trifluoromethyl)-1H-1,2,3-triazol-4-yl]pyridine]: the IC50 at Jarid1B was 100 to 1000 nM; against JMJD3, greater than 10000 nM.
The corresponding values for `FC(F)(F)COc1ccccc1Cn1cnc(-c2cc(-c3nn[nH]c3C(F)(F)F)ccn2)c1` [Example 76, 2-(1-{[2-(2,2,2-trifluoroethoxy)phenyl]methyl}-1H-imidazol-4-yl)-4-[5-(trifluoromethyl)-1H-1,2,3-triazol-4-yl]pyridine] are 100 to 1000 nM and greater than 10000 nM.
The corresponding values for `Fc1ccc(CCn2cnc(-c3cc(-c4nn[nH]c4C(F)(F)F)ccn3)c2)cc1` [Example 77] are no more than 100 nM and 1000 to 10000 nM.
The corresponding values for `Fc1cccc(CCn2cnc(-c3cc(-c4nn[nH]c4C(F)(F)F)ccn3)c2)c1` [Example 78, 2-{1-[2-(3-fluorophenyl)ethyl]-1H-imidazol-4-yl}-4-[5-(trifluoromethyl)-1H-1,2,3-triazol-4-yl]pyridine] are no more than 100 nM and 1000 to 10000 nM.
On to `Fc1cccc(CCn2cnc(-c3cc(-c4nn[nH]c4C(F)(F)F)ccn3)c2)c1F` [Example 79, 2-{1-[2-(2,3-difluorophenyl)ethyl]-1H-imidazol-4-yl}-4-[5-(trifluoromethyl)-1H-1,2,3-triazol-4-yl]pyridine], for which the IC50 was no more than 100 nM on Jarid1B and greater than 10000 nM against JMJD3.
`Fc1cccc(Cl)c1CCn1cnc(-c2cc(-c3nn[nH]c3C(F)(F)F)ccn2)c1` [Example 80, 2-{1-[2-(2-chloro-6-fluorophenyl)ethyl]-1H-imidazol-4-yl}-4-[5-(trifluoromethyl)-1H-1,2,3-triazol-4-yl]pyridine]: the IC50 at Jarid1B is 100 to 1000 nM; on JMJD3, greater than 10000 nM.
`Fc1cc(F)c(CCn2cnc(-c3cc(-c4nn[nH]c4C(F)(F)F)ccn3)c2)cc1F` [Example 81, 4-[5-(trifluoromethyl)-1H-1,2,3-triazol-4-yl]-2-{1-[2-(2,4,5-trifluorophenyl)ethyl]-1H-imidazol-4-yl}pyridine]: the IC50 was no more than 100 nM on Jarid1B and greater than 10000 nM against JMJD3.
Consider `Fc1cc(F)c(CCn2cnc(-c3cc(-c4nn[nH]c4C(F)(F)F)ccn3)c2)c(F)c1` [Example 82, 4-[5-(trifluoromethyl)-1H-1,2,3-triazol-4-yl]-2-{1-[2-(2,4,6-trifluorophenyl)ethyl]-1H-imidazol-4-yl}pyridine], for which the values for the IC50 at Jarid1B and on JMJD3 were 100 to 1000 nM and greater than 10000 nM, respectively.
Take `Fc1ccc(CCn2cnc(-c3cc(-c4nn[nH]c4C(F)(F)F)ccn3)c2)c(F)c1` [Example 86, 2-{1-[2-(2,4-difluorophenyl)ethyl]-1H-imidazol-4-yl}-4-[5-(trifluoromethyl)-1H-1,2,3-triazol-4-yl]pyridine]: the IC50 is no more than 100 nM at Jarid1B and greater than 10000 nM against JMJD3.
